“And” between values parts separate entries of the source, which are not always exact repeats. Identical values can stand only once. Like-named read-outs stand apart in the source and are kept apart here. Blank lines part the entries; values can stand above or below the compound they belong to.
Tests used:
[1] = system: WT TTR cytotoxicity in IMR-32 neuroblastoma cells; assay: Inhibition of WT TTR-induced cytotoxicity, resazurin reduction; details: TTR and ligand 8 μM, 24 h
[2] = system: V1221 TTR cytotoxicity in AC16 cardiac cells; assay: Inhibition of V1221 TTR-induced cytotoxicity, resazurin reduction; details: TTR and ligand 8 μM, 24 h
TTR [3] = biological target: T1, TTR (Homo sapiens (Human), UniProt P02766); assay: Fluorescence polarization displacement of probe 5 from TTR; details: probe 5 100 nM, TTR 200 nM
[4] = biological target: human TTR (wild type, from human plasma) (Homo sapiens (Human), UniProt P02766); assay: Isothermal titration calorimetry (ITC) of ligands against TTR; format: binding; details: 5 versus 4
Protocol: Calorimetric titrations were carried out on a VP-ITC calorimeter (MicroCal, Northhampton, Mass.). […] Prior to each titration, all samples were degassed for 10 minutes. The initial injection of 3.0 μL was followed by 30 injections of 8.0 μL each (25° C.) to the point that TTR was fully saturated with ligand. Integration of the thermogram after subtraction of blanks yielded a binding isotherm that was analyzed with MicroCal Origin 5.0 software.

WT TTR = WT TTR (Homo sapiens (Human), UniProt P02766); assay: Acid-mediated fibril formation (turbidity) assay for TTR amyloidogenesis
[5] = biological target: wild type biotinylated TTR (Homo sapiens (Human), UniProt P02766); assay: Surface plasmon resonance on immobilized biotinylated TTR; format: binding; details: SPR
Protocol: To an ice-cold solution of TTR (20 μM) in PBS was added EZ-Link Sulfo-NHS-LC-Biotin at a ratio of ˜2:1 (biotin:TTR) (minimal biotinylation) and the solution was incubated at room temperature. After 1 hour, un-reacted biotin was removed by passing the sample over a fast (FPLC) desalting column (Superdex™ 75) equilibrated with PBS.
SPR measurements were performed at 25° C. using a Biacore T100 (GE Healthcare) instrument equilibrated in 1% DMSO in PBS as a running buffer. After pretreatment of the streptavidin-coated chip (Sensor Chop SA, Biacore), ˜4000 RU biotinylated TTR was immobilized on one channel leaving the second flow channel as a blank (streptavidin alone) control. For binding measurements, HTS hits were diluted in running buffer (1% DMSO/PBS) and different dilution series were flowed over the chip at 50 μL/min ([…], 600 s wash). A zero concentration sample was used as a negative control. The kinetic data was fitted to a one-to-one binding model using Biacore T100 evaluation software.

TTR [6] = biological target: T1, TTR; assay: FP saturation binding experiment; details: FITC alone
Protocol: The binding of probe 5 for TTR was evaluated as follows. […] The samples were allowed to equilibrate by agitation for 20 min at room temperature. Fluorescence polarization (excitation λ 485 nm, emission λ 525 nm, Cutoff λ 515 nm) measurements were taken using SpectraMax M5 Microplate Reader (Molecular Devices). […] Nonspecific FP, produced by the free fluorescent probe 5 as well as by binding of 5 to the plate, was equal to 70±10 mP.

Compound: O=[N+]([O-])c1cc(O)c(O)c([N+](=O)[O-])c1 [3,5-dinitrocatechol]
Prevention of WT TTR-induced cytotoxicity [1]: poor inhibitor | Prevention of V1221 TTR-induced cytotoxicity [2]: poor inhibitor

FP Kapp (apparent binding constant) (TTR [3]): 0.231 μM and 0.231 (R^2 = 0.997) μM
Compound: O=C(O)c1ccc(-c2c(F)cccc2F)cc1 [Compound 1]

Fold decrease in binding affinity to TTR on attaching FITC to 4 [4]: ~3 fold
Compound: O=C(O)c1ccccc1Nc1cc(Cl)c(OCCOCCOCCNC(=S)Nc2ccc3c(c2)C(=O)OC32c3ccc(O)cc3Oc3cc(O)ccc32)c(Cl)c1 [Compound 5, 2-(3,5-dichloro-4-(2-(2-(2-(3-(3′,6′-dihydroxy-3-oxo-3H-spiro[isobenzofuran-1,9′-xanthene]-5-yl)thioureido)ethoxy)ethoxy)ethoxy)phenylamino)benzoic acid]

Inhibition of fibril formation at substoichiometric ligand (WT TTR; ligand 3.0 μM, TTR 3.6 μM, monitored over 5 days): > 75%
Compound: Cc1n[nH]c(C)c1CCc1nc2c3ccccc3[nH]c(=O)n2n1 [Compound 15]

target residence time, fold lower than 7 [5]: ~40 × | FP Kapp (apparent binding constant) (TTR [3]): 4.66 µM
Compound: O=C(O)Cc1ccccc1Nc1c(Cl)cccc1Cl [Diclofenac]

Compound: O=C(O)c1cccnc1Nc1cccc(C(F)(F)F)c1 [Niflumic acid, niflumic acid]
Prevention of V1221 TTR-induced cytotoxicity [2]: relatively poor inhibitor

Compound: O=C(c1cc(O)c(O)c([N+](=O)[O-])c1)c1ccccc1F [Ro 41-0960]
Prevention of WT TTR-induced cytotoxicity [1]: completely prevented TTR-induced cytotoxicity | Prevention of V1221 TTR-induced cytotoxicity [2]: completely prevented TTR-induced cytotoxicity | Inhibition of fibril formation at substoichiometric ligand (WT TTR): > 75%

Compound: fluorescein isothiocyanate [FITC]
Change in FP signal upon addition of TTR (TTR [6]): no change in the FP signal

— US10278929B2, “Identification of stabilizers of multimeric proteins” (The Board of Trustees of the Leland Stanford Junior …, priority 2010, dated 2019)
